From US9085589B2, “Cephem derivative” (SHIONOGI & CO., LTD., priority 2010, dated 2015)
In brackets after ≈: the same amount, converted by molar mass.

Tests used:
Format in all cases: cell-based
[1] = tested on: Acinetobacter baumannii SR24396; test: MIC, broth microdilution (CLSI), medium with human Apo-transferrin; settings: A. baumannii SR24396, cation adjusted Mueller-Hinton + human Apo-transferrin, 5×10^5 cfu/mL, read-out: Minimum Inhibitory Concentration (MIC)
Method: (§1) (Test Methods for Compounds (I-10) to (I-15))
(§2) (Microbe/Strain Species Nos. 1 to 5):
(§3) Measurement of Minimum Inhibitory Concentration (MIC, microgram/ml) was conducted according to the CLSI (Clinical and Laboratory Standards Institute) and the amount of bacteria for inoculation was 5×10^5 cfu/mL, and cation adjusted Mueller-Hinton liquid medium added human Apo-tranferrin was used as the test medium, and conducted using broth microdilution method.
(§4) (Test Methods for Compounds (I-18) to (I-22))

[2] = tested on: Klebsiella pneumoniae ATCC 700603; test: as above; settings: K. pneumoniae ATCC700603, SHV-18, ESBL producing strain, cation adjusted Mueller-Hinton + human Apo-transferrin, 5×10^5 cfu/mL, read-out: Minimum Inhibitory Concentration (MIC)
Method: as §1, §2, §3, §4

[3] = tested on: Pseudomonas aeruginosa SR24; test: as above; settings: P. aeruginosa SR24, ceftazidime sensitive strain, cation adjusted Mueller-Hinton + human Apo-transferrin, 5×10^5 cfu/mL, read-out: Minimum Inhibitory Concentration (MIC)
Method: as §1, §2, §3, §4

[4] = tested on: Pseudomonas aeruginosa SR27060; test: as above; settings: P. aeruginosa SR27060, IMP-1, MBL producing (carbapenem resistant) strain, cation adjusted Mueller-Hinton + human Apo-transferrin, 5×10^5 cfu/mL, read-out: Minimum Inhibitory Concentration (MIC)
Method: as §1, §2, §3, §4

[5] = tested on: Stenotrohomonas maltophilia SR21970; test: as above; settings: Stenotrophomonas maltophilia, S. maltophilia SR21970, L-1, MBL producing (carbapenem resistant) strain, cation adjusted Mueller-Hinton + human Apo-transferrin, 5×10^5 cfu/mL, read-out: Minimum Inhibitory Concentration (MIC)
Method: as §1, §2, §3, §4

[6] = tested on: Acinetobacter baumannii SR24396; test: MIC, agar plate incubation (Japan Society for Chemotherapy standard method); settings: A. baumannii SR24396, sensitive disc medium, 1000 cfu/spot, read-out: Minimum Inhibitory Concentration (MIC)
Method: (§5) (Test Methods for Compounds (I-1) to (I-9), (I-16), (I-17) and (I-23))
(§6) (Microbe/Strain Species Nos. 1 to 4 and 6 to 8):
(§7) Measurement of Minimum Inhibitory Concentration (MIC: microgram/ml) was conducted according to the standard method of the Japan Society for Chemotherapy, and the amount of bacteria for inoculation was 1000 cfu/spot, and sensitive disc medium was used as the test medium, and conducted using agar plate incubation.

[7] = tested on: Klebsiella pneumoniae ATCC 700603; test: as above; settings: K. pneumoniae ATCC700603, SHV-18, ESBL producing strain, sensitive disc medium, 1000 cfu/spot, read-out: Minimum Inhibitory Concentration (MIC)
Method: as §5, §6, §7

[8] = tested on: Pseudomonas aeruginosa SR24; test: as above; settings: P. aeruginosa SR24, ceftazidime sensitive strain, sensitive disc medium, 1000 cfu/spot, read-out: Minimum Inhibitory Concentration (MIC)
Method: as §5, §6, §7

[9] = tested on: Pseudomonas aeruginosa SR27060; test: as above; settings: P. aeruginosa SR27060, IMP-1, MBL producing (carbapenem resistant) strain, sensitive disc medium, 1000 cfu/spot, read-out: Minimum Inhibitory Concentration (MIC)
Method: as §5, §6, §7

[10] = tested on: Streptococcus pneumoniae Type I; test: as above; settings: S. pneumoniae Type I, PSSP, sensitive disc medium, 1000 cfu/spot, read-out: Minimum Inhibitory Concentration (MIC)
Method: as §5, §6, §7

[11] = tested on: Stenotrohomonas maltophilia SR21970; test: MIC, agar plate incubation (CLSI), Mueller-Hinton agar; settings: Stenotrophomonas maltophilia, S. maltophilia SR21970, L-1, MBL producing (carbapenem resistant) strain, 10000 cfu/spot, read-out: Minimum Inhibitory Concentration (MIC)
Method: as §5
(Microbe/Strain Species No. 5):
Measurement of Minimum Inhibitory Concentration (MIC, microgram/ml) was conducted according to the CLSI (Clinical and Laboratory Standards Institute) and the amount of bacteria for inoculation was 10000 cfu/spot, and Mueller-Hinton agar medium was used as the test medium, and conducted using agar plate incubation.

[12] = tested on: Staphylococcus aureus Smith; test: MIC, agar plate incubation (Japan Society for Chemotherapy standard method); settings: S. aureus Smith, MSSA, sensitive disc medium, 1000 cfu/spot, read-out: Minimum Inhibitory Concentration (MIC)
Method: as §5, §6, §7

[13] = tested on: Streptococcus pneumoniae SR16675; test: as above; settings: S. pneumoniae SR16675, PRSP, sensitive disc medium, 1000 cfu/spot, read-out: Minimum Inhibitory Concentration (MIC)
Method: as §5, §6, §7

With `CC(C)(O/N=C(\C(=O)N[C@@H]1C(=O)N2C(C(=O)[O-])=C(C[N@+]34CCC[C@H]3CN(C(=O)c3ccc(O)c(O)c3Cl)CC4)CS[C@H]12)c1ccc(O)cc1)C(=O)[O-].[Na+]` [Compound I-15] as the compound, how does the MIC [1] read?
The MIC was 4 µg/mL.

And the MIC [2]?
Its MIC is 32 µg/mL.

What about the MIC [3] of the same compound?
The MIC was 0.5 µg/mL.

And the MIC [4]?
Its MIC is 2 µg/mL.

What about the MIC [5] of the same compound?
The MIC was 0.5 µg/mL.

Which results are given for `CCN1CCN(C(=O)N[C@@H](C(=O)N[C@@H]2C(=O)N3C(C(=O)[O-])=C(C[N+]45CCC(CNC(=O)c6ccc(O)c(O)c6Cl)(CC4)CC5)CO[C@H]23)c2ccccc2)C(=O)C1=O` [Compound I-23]?
MIC [6]: 1 µg/mL (≈ 1.24 µM); MIC [7]: 16 µg/mL (≈ 19.8 µM); MIC [8]: 0.5 µg/mL (≈ 0.619 µM); MIC [9]: 4 µg/mL (≈ 4.95 µM); MIC [10]: 0.5 µg/mL (≈ 0.619 µM); MIC [11]: > 64 µg/mL

How did the MIC [6] turn out when `CC(C)(O/N=C(\C(=O)NC1C(=O)N2C(C(=O)O)=C(C[N+]3(CCNC(=O)c4ccc(O)c(O)c4Cl)CCCC3)CS[C@H]12)c1ccc(O)c(F)c1)C(=O)[O-]` (some centres unmarked) [Compound I-17] was run?
The MIC was 1 µg/mL (≈ 1.31 µM).

What about the MIC [7] of the same compound?
The MIC was 4 µg/mL (≈ 5.23 µM).

And the MIC [8]?
The MIC was 0.25 µg/mL (≈ 0.327 µM).

What about the MIC [9] of the same compound?
Its MIC is 1 µg/mL (≈ 1.31 µM).

What about the MIC [11] of the same compound?
The MIC was 2 µg/mL (≈ 2.62 µM).

Which results are given for `CCN1CCN(C(=O)N[C@@H](C(=O)N[C@@H]2C(=O)N3C(C(=O)[O-])=C(C[N+]4(CCNC(=O)c5ccc(O)c(O)c5Cl)CCCC4)CS[C@H]23)c2ccccc2)C(=O)C1=O` [Compound I-1]?
MIC [6]: 0.5 µg/mL (≈ 0.626 µM); MIC [7]: 1 µg/mL (≈ 1.25 µM); MIC [8]: 0.063 µg/mL (≈ 0.0789 µM); MIC [9]: 0.5 µg/mL (≈ 0.626 µM); MIC [12]: 4 µg/mL (≈ 5.01 µM); MIC [13]: 8 µg/mL (≈ 10 µM); MIC [10]: 0.5 µg/mL (≈ 0.626 µM); MIC [11]: 2 µg/mL (≈ 2.51 µM)

What does the source list for `CCN1CCN(C(=O)N[C@@H](C(=O)N[C@@H]2C(=O)N3C(C(=O)[O-])=C(C[N@+]4(C)[C@@H]5CC[C@H]4C[C@@H](NC(=O)c4ccc(O)c(O)c4Cl)C5)CS[C@H]23)c2ccccc2)C(=O)C1=O` [Compound I-18]?
MIC [1]: 0.25 µg/mL; MIC [2]: 2 µg/mL; MIC [3]: 0.125 µg/mL; MIC [4]: 2 µg/mL; MIC [5]: 4 µg/mL

How did the MIC [6] turn out when `Nc1nc(C(=CCC(=O)[O-])C(=O)N[C@@H]2C(=O)N3C(C(=O)[O-])=C(C[N+]4(CCNC(=O)c5ccc(O)c(O)c5Cl)CCCC4)CS[C@H]23)cs1.[Na+]` [Compound I-8] was run?
Its MIC is 0.25 µg/mL.

What about the MIC [7] of the same compound?
Its MIC is 0.5 µg/mL.

And the MIC [8]?
The MIC was 0.25 µg/mL.

And the MIC [9]?
Its MIC is 2 µg/mL.

What about the MIC [10] of the same compound?
The MIC was 4 µg/mL.

What about the MIC [11] of the same compound?
The MIC was 4 µg/mL.
